Assay results taken from patent US12227500B2, “Substituted pyrrolo[2,3-b]pyridines for suppressing toxic endoplasmic reticulum stress” (THE TRUSTEES OF COLUMBIA UNIVERSITY IN THE CITY OF NEW YORK, priority 2018, dated 2025).

Assays:
Experiment in all cases: Radiolabeled ATP kinase assay, panel of 371 kinases (Table S6)
Format in all cases: biochemical
[1] = biological target: T1, panel of 371 human kinases (Homo sapiens, UniProt Q9Y6E0); settings: MST3/STK24; 0.1 μM; 10 μM ATP; read-out: % Enzyme Activity (relative to DMSO controls)
T1 construct: purchased Reaction Biology Corp
T1 sequence (Q9Y6E0 whole entry): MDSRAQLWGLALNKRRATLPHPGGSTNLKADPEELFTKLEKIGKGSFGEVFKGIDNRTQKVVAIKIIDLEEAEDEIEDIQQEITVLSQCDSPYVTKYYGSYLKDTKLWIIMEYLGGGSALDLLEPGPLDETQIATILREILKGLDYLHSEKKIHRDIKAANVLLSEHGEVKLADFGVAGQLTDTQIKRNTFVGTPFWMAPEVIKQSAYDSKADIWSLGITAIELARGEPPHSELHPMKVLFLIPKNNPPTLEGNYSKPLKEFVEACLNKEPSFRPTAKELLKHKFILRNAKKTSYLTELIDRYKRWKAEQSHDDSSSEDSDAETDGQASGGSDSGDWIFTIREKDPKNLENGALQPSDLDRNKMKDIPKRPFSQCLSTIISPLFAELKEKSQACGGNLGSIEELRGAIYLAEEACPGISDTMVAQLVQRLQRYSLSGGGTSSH
Source text: (§1) ; FIG. 38C). […]. Further targeted analyses, such as genetic knock-down or knock-out, may be warranted to parse the role of these additional kinases in our model of neurodegeneration.

[2] = biological target: T2, panel of 371 human kinases (Homo sapiens, UniProt Q15835); settings: GRK1; 0.1 μM; 10 μM ATP; read-out: % Enzyme Activity (relative to DMSO controls)
T2 construct: purchased Reaction Biology Corp
Source text: as §1

[3] = biological target: T3, panel of 371 human kinases (Homo sapiens, UniProt Q9UBE8); settings: NLK; 0.1 μM; 10 μM ATP; read-out: % Enzyme Activity (relative to DMSO controls)
T3 construct: purchased Reaction Biology Corp
Source text: as §1

[4] = biological target: T4, panel of 371 human kinases (Homo sapiens, UniProt O43318); settings: TAK1; 0.1 μM; 10 μM ATP; read-out: % Enzyme Activity (relative to DMSO controls)
T4 construct: purchased Reaction Biology Corp
T4 sequence (O43318 whole entry): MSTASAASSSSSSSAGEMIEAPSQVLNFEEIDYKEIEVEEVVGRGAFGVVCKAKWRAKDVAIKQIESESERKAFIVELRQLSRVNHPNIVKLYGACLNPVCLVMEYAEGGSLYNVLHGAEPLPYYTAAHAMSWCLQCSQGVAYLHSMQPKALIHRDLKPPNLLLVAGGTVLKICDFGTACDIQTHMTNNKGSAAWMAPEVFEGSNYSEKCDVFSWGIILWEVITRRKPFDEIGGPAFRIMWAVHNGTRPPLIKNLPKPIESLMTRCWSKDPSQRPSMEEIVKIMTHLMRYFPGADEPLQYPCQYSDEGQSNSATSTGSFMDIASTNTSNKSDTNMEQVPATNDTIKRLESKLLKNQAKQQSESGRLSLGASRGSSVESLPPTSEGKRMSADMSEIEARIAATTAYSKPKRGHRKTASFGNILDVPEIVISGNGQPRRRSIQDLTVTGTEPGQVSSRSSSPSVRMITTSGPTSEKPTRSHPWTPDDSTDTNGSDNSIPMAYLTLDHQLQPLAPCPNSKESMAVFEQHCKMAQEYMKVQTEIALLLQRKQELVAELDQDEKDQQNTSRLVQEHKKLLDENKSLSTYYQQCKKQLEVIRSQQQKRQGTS
Source text: as §1

[5] = biological target: T5, panel of 371 human kinases (Homo sapiens, UniProt Q13976); settings: PKG1a; 0.1 μM; 10 μM ATP; read-out: % Enzyme Activity (relative to DMSO controls)
T5 construct: purchased Reaction Biology Corp
T5 sequence (Q13976 whole entry): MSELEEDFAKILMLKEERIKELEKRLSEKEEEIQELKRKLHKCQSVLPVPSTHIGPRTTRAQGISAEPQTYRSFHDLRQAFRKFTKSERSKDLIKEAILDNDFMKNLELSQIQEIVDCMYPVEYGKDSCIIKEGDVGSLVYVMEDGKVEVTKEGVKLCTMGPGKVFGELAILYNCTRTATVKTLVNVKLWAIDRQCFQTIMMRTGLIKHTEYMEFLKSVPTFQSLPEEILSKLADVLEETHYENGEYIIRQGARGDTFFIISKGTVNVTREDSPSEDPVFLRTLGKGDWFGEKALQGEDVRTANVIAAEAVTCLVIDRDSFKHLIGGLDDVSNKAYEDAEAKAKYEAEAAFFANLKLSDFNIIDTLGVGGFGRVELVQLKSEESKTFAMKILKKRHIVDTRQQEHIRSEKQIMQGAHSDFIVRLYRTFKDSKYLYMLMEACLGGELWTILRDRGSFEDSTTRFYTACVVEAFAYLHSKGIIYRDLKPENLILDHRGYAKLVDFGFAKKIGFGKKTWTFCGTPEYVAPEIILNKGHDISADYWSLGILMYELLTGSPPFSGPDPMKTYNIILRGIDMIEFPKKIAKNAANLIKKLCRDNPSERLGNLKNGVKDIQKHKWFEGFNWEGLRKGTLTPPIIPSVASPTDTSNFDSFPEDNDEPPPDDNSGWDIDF
Source text: as §1

[6] = biological target: T6, panel of 371 human kinases (Homo sapiens, UniProt Q9Y463); settings: DYRK1B; 0.1 μM; 10 μM ATP; read-out: % Enzyme Activity (relative to DMSO controls)
T6 construct: purchased Reaction Biology Corp
T6 sequence (Q9Y463 whole entry): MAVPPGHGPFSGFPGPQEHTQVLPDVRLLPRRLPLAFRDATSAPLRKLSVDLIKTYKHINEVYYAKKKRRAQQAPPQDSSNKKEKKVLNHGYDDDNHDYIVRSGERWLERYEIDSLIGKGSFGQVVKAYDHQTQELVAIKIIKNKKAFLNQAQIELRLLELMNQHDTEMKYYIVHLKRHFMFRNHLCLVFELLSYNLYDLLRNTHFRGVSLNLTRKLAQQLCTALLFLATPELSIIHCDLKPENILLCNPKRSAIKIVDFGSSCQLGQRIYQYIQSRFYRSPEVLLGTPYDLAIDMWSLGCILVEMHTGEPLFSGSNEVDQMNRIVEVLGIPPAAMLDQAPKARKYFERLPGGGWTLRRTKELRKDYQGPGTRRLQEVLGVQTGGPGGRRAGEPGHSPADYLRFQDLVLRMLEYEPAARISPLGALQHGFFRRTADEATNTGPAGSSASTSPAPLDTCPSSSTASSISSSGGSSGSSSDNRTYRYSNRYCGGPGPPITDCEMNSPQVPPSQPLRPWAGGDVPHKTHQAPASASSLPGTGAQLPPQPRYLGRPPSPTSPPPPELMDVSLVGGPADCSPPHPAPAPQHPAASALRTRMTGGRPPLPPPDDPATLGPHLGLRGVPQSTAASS
Source text: as §1

[7] = biological target: T7, panel of 371 human kinases (Homo sapiens, UniProt O14733); settings: MKK7; 0.1 μM; 10 μM ATP; read-out: % Enzyme Activity (relative to DMSO controls)
T7 construct: purchased Reaction Biology Corp
Source text: as §1

[8] = biological target: T8, panel of 371 human kinases (Homo sapiens, UniProt P12931); settings: c-Src; 0.1 μM; 10 μM ATP; read-out: % Enzyme Activity (relative to DMSO controls)
T8 construct: purchased Reaction Biology Corp
Source text: as §1

[9] = biological target: T9, panel of 371 human kinases (Homo sapiens, UniProt Q16512); settings: PKN1/PRK1; 0.1 μM; 10 μM ATP; read-out: % Enzyme Activity (relative to DMSO controls)
T9 construct: purchased Reaction Biology Corp
Source text: as §1

[10] = biological target: T10, panel of 371 human kinases (Homo sapiens, UniProt Q15139); settings: PKCmu/PRKD1; 0.1 μM; 10 μM ATP; read-out: % Enzyme Activity (relative to DMSO controls)
T10 construct: purchased Reaction Biology Corp
T10 sequence (Q15139 whole entry): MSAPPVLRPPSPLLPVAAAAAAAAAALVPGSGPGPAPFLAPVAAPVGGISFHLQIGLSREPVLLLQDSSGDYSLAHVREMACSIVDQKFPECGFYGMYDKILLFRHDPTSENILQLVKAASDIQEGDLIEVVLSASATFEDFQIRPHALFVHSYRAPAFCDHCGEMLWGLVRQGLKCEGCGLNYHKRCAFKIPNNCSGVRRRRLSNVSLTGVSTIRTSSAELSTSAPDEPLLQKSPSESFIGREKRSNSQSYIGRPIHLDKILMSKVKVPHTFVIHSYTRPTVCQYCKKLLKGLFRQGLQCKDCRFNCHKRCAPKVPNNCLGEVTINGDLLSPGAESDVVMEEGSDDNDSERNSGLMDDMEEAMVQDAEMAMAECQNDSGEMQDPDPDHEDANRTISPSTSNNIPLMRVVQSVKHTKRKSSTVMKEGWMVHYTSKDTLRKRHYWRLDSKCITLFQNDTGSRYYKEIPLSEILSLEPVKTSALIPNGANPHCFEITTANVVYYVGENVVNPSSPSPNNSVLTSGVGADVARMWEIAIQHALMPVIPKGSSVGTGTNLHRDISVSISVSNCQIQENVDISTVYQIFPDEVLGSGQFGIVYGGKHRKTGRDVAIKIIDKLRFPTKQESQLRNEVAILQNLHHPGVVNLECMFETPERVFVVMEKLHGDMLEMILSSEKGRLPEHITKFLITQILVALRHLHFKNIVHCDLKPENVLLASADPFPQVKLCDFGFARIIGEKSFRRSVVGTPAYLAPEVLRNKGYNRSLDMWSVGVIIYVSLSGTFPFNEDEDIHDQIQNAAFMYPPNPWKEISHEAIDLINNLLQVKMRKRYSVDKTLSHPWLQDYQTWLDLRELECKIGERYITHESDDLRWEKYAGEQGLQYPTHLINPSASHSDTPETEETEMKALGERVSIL
Source text: as §1

[11] = biological target: T11, panel of 371 human kinases (Homo sapiens, UniProt P51451); settings: BLK; 0.1 μM; 10 μM ATP; read-out: % Enzyme Activity (relative to DMSO controls)
T11 construct: purchased Reaction Biology Corp
Source text: as §1

[12] = biological target: T12, panel of 371 human kinases (Homo sapiens, UniProt Q96L34); settings: MARK4; 0.1 μM; 10 μM ATP; read-out: % Enzyme Activity (relative to DMSO controls)
T12 construct: purchased Reaction Biology Corp
Source text: as §1

[13] = biological target: T13, panel of 371 human kinases (Homo sapiens, UniProt O75914); settings: PAK3; 0.1 μM; 10 μM ATP; read-out: % Enzyme Activity (relative to DMSO controls)
T13 construct: purchased Reaction Biology Corp
Source text: as §1

[14] = biological target: T14, panel of 371 human kinases (Homo sapiens, UniProt P46734); settings: MEK3; 0.1 μM; 10 μM ATP; read-out: % Enzyme Activity (relative to DMSO controls)
T14 construct: purchased Reaction Biology Corp
T14 sequence (P46734 whole entry): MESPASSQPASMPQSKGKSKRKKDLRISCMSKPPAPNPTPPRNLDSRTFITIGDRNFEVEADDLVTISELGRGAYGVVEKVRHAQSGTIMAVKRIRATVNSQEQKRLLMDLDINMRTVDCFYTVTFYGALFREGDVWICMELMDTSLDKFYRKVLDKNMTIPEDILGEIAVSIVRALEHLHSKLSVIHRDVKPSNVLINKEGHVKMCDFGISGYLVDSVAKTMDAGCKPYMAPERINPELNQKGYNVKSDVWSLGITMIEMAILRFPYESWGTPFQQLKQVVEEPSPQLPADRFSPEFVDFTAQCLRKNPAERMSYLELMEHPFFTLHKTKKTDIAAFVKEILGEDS
Source text: as §1

[15] = biological target: T15, panel of 371 human kinases (Homo sapiens, UniProt Q9UQB9); settings: Aurora C; 0.1 μM; 10 μM ATP; read-out: % Enzyme Activity (relative to DMSO controls)
T15 construct: purchased Reaction Biology Corp
Source text: as §1

[16] = biological target: T16, panel of 371 human kinases (Homo sapiens, UniProt P49137); settings: MAPKAPK2; 0.1 μM; 10 μM ATP; read-out: % Enzyme Activity (relative to DMSO controls)
T16 construct: purchased Reaction Biology Corp
T16 sequence (P49137 whole entry): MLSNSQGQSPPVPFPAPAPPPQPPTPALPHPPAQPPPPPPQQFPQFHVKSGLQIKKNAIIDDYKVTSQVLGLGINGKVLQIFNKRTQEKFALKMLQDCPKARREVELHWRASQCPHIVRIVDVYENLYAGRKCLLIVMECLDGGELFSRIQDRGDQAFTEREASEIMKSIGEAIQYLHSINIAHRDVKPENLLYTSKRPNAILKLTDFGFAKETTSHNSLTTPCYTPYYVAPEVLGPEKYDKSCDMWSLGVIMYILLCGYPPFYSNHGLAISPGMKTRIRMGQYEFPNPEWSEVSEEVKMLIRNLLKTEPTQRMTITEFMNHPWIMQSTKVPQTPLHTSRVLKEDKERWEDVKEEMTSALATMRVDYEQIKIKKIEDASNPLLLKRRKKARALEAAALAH
Source text: as §1

[17] = biological target: T17, panel of 371 human kinases (Homo sapiens, UniProt Q9UPZ9); settings: LCK2/ICK; 0.1 μM; 10 μM ATP; read-out: % Enzyme Activity (relative to DMSO controls)
T17 construct: purchased Reaction Biology Corp
Source text: as §1

[18] = biological target: T18, panel of 371 human kinases (Homo sapiens, UniProt P08922); settings: ROS/ROS1; 0.1 μM; 10 μM ATP; read-out: % Enzyme Activity (relative to DMSO controls)
T18 construct: purchased Reaction Biology Corp
Source text: as §1

[19] = biological target: T19, panel of 371 human kinases (Homo sapiens, UniProt P05129); settings: PKCg; 0.1 μM; 10 μM ATP; read-out: % Enzyme Activity (relative to DMSO controls)
T19 construct: purchased Reaction Biology Corp
Source text: as §1

[20] = biological target: T20, panel of 371 human kinases (Homo sapiens, UniProt Q14164); settings: IKKe/IKBKE; 0.1 μM; 10 μM ATP; read-out: % Enzyme Activity (relative to DMSO controls)
T20 construct: purchased Reaction Biology Corp
Source text: as §1

[21] = biological target: T21, panel of 371 human kinases (Homo sapiens, UniProt P36888); settings: FLT3; 0.1 μM; 10 μM ATP; read-out: % Enzyme Activity (relative to DMSO controls)
T21 construct: purchased Reaction Biology Corp
Source text: as §1

[22] = biological target: T22, panel of 371 human kinases (Homo sapiens, UniProt Q8TDX7); settings: NEK7; 0.1 μM; 10 μM ATP; read-out: % Enzyme Activity (relative to DMSO controls)
T22 construct: purchased Reaction Biology Corp
T22 sequence (Q8TDX7 whole entry): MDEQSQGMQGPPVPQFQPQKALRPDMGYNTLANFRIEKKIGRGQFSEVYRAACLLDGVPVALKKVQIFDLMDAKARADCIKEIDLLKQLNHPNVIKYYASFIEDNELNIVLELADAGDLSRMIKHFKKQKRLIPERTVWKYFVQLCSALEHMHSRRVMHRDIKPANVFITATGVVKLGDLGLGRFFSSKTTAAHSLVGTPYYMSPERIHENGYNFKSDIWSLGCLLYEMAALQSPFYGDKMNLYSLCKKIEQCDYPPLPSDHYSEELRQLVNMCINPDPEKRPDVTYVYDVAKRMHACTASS
Source text: as §1

[23] = biological target: T23, panel of 371 human kinases (Homo sapiens, UniProt P34947); settings: GRK5; 0.1 μM; 10 μM ATP; read-out: % Enzyme Activity (relative to DMSO controls)
T23 construct: purchased Reaction Biology Corp
T23 sequence (P34947 whole entry): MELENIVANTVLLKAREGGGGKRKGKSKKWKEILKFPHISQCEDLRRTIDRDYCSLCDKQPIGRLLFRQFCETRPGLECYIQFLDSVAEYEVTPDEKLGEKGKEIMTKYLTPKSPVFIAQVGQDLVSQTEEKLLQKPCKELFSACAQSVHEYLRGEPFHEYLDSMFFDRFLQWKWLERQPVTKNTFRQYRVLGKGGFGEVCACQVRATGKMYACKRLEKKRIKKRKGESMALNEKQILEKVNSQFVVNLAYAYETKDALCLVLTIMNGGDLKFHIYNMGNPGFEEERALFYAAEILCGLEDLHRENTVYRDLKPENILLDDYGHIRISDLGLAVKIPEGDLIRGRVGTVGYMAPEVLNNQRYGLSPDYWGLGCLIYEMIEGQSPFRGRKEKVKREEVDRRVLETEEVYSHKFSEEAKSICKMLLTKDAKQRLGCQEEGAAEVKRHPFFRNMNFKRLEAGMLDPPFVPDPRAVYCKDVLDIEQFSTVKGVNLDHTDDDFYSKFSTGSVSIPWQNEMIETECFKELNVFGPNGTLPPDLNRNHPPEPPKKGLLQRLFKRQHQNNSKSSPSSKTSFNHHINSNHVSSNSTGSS
Source text: as §1

[24] = biological target: T24, panel of 371 human kinases (Homo sapiens, UniProt O15264); settings: P38d/MAPK13; 0.1 μM; 10 μM ATP; read-out: % Enzyme Activity (relative to DMSO controls)
T24 construct: purchased Reaction Biology Corp
Source text: as §1

Structure (SMILES): CN1CCN(Cc2ccc(-c3cnc4[nH]cc(-c5ccc6[nH]ccc6c5)c4c3)cc2)CC1 [Compound 1, 3-(1H-Indol-5-yl)-5-(4-((4-methylpiperazin-1-yl)methyl)phenyl)-1H-pyrrolo[2,3-b]pyridine, reference compound]
- remaining activity at 0.1 µM [1]: 71.2%
- remaining activity at 0.1 µM [2]: 107%
- remaining activity at 0.1 µM [3]: 101%
- remaining activity at 0.1 µM [4]: 84.6%
- remaining activity at 0.1 µM [5]: 101%
- remaining activity at 0.1 µM [6]: 43.2%
- remaining activity at 0.1 µM [7]: 99.8%
- remaining activity at 0.1 µM [8]: 86%
- remaining activity at 0.1 µM [9]: 94%
- remaining activity at 0.1 µM [10]: 24.4%
- remaining activity at 0.1 µM [11]: 99.5%
- remaining activity at 0.1 µM [12]: 76%
- remaining activity at 0.1 µM [13]: 97.3%
- remaining activity at 0.1 µM [14]: 101%
- remaining activity at 0.1 µM [15]: 110%
- remaining activity at 0.1 µM [16]: 96.9%
- remaining activity at 0.1 µM [17]: 111%
- remaining activity at 0.1 µM [18]: 96%
- remaining activity at 0.1 µM [19]: 89%
- remaining activity at 0.1 µM [20]: 82.5%
- remaining activity at 0.1 µM [21]: 22.3%
- remaining activity at 0.1 µM [22]: 94.9%
- remaining activity at 0.1 µM [23]: 98.2%
- remaining activity at 0.1 µM [24]: 132%

Structure (SMILES): OCCN1CCN(Cc2ccc(-c3cnc4[nH]cc(-c5cccc(Cl)c5)c4c3)cc2)CC1 [Compound 12k, 2-(4-(4-(3-(3-Chlorophenyl)-1H-pyrrolo[2,3-b]pyridin-5-yl)benzyl)piperazin-1-yl)ethan-1-ol]
- remaining activity at 0.1 µM [1]: 78.4%
- remaining activity at 0.1 µM [2]: 92%
- remaining activity at 0.1 µM [3]: 94.3%
- remaining activity at 0.1 µM [4]: 77.4%
- remaining activity at 0.1 µM [5]: 108%
- remaining activity at 0.1 µM [6]: 38.3%
- remaining activity at 0.1 µM [7]: 105%
- remaining activity at 0.1 µM [8]: 88.1%
- remaining activity at 0.1 µM [9]: 95%
- remaining activity at 0.1 µM [10]: 3.95%
- remaining activity at 0.1 µM [11]: 101%
- remaining activity at 0.1 µM [12]: 40%
- remaining activity at 0.1 µM [13]: 90.8%
- remaining activity at 0.1 µM [14]: 99.7%
- remaining activity at 0.1 µM [15]: 97.3%
- remaining activity at 0.1 µM [16]: 99.6%
- remaining activity at 0.1 µM [17]: 109%
- remaining activity at 0.1 µM [18]: 94.2%
- remaining activity at 0.1 µM [19]: 106%
- remaining activity at 0.1 µM [20]: 63.8%
- remaining activity at 0.1 µM [21]: 29.4%
- remaining activity at 0.1 µM [22]: 101%
- remaining activity at 0.1 µM [23]: 93.3%
- remaining activity at 0.1 µM [24]: 103%
